Experimental data published in PMC5502055, “Phase II study of lanreotide autogel in Japanese patients with unresectable or metastatic well-differentiated neuroendocrine tumors” (Investigational New Drugs, 2017).

Columns and labels:
[1] = system: Japanese patients with grade (G) 1/G2 NET; experiment: Post hoc analysis of tumor growth rate (TGR); assay type: in vivo, human; design: key to TGR (0-Last): % change in tumor volume per month; settings: for TGR (0-Last): mean ± SD
Description: The descriptive statistics of tumor growth rate (TGR) were calculated in a post hoc analysis of the FAS. The TGR estimates the change of the tumor volume during 1 month. This value incorporates the intervals between imaging tests, thus allowing a quantitative and dynamic evaluation of the tumor response. Scatter plots were prepared, and a subgroup analysis was conducted. To calculate TGR, results evaluated by the investigator were used before baseline, and results determined via central evaluation were used after baseline. There were not enough events for multivariate analysis, therefore univariate analysis based on the Cox proportional hazard model was implemented to assess prognostic factors.
The TGR per unit time was calculated in the post-hoc analysis. From past to 0 (baseline), the results of the investigator’s evaluation were used for tumor lesions, after baseline, the results of a central evaluation were used for the tumor lesions. The TGR (mean ± SD) before the first injection was 25.3 ± 35.7%, and the TGR from baseline to the last value was 5.4 ± 10.7% (Fig. 4).

serum CgA = experiment: Serum chromogranin A (CgA) concentration; assay type: in vivo, human; settings: 15 of 17 patients with baseline CgA >100 ng/mL
Description: Serum CgA, serum anti-lanreotide antibody, and serum lanreotide testing methods are described in the Electronic Supplementary Material.
In the primary analysis, the CBR point estimate at 24 weeks after the first injection and an exact F distribution-based 95% confidence interval (CI) were calculated. The CBR was selected as the primary endpoint, because maintaining SD was deemed beneficial and clinically meaningful for NET patients. In the secondary analysis, Kaplan–Meier curves of PFS and OS were prepared, and median values and 95% CIs were calculated. The ORRs at 24, 48, and 60 weeks after the first injection were also calculated. Regarding percent changes from baseline in the sum of the diameters of target lesion, descriptive statistics were calculated for each evaluation time point, and waterfall plots of the best response and last evaluation time points were prepared. Regarding the serum CgA concentration and QOL evaluation, descriptive statistics of changes from baseline were calculated for each time point. For all endpoints, the starting point of evaluation was set as the baseline for the phase II study.
Serum chromogranin A concentrations were determined centrally every 12 weeks for the 48-weeks period following the start of administration, and every 24 weeks thereafter (SRL Medisearch Inc.,Tokyo,Japan, Kit Cisbio).

[2] = system: non-functional enteropancreatic NET; settings: CLARINET study, cited from earlier work
Description: Tumors occurring in nerves or endocrine cells anywhere in the body can be classified as neuroendocrine neoplasm (NEN). NEN is classified into poorly-differentiated neuroendocrine carcinoma and well-differentiated neuroendocrine tumor (NET). NET is a rare disease and tends to proliferate slowly. According to an epidemiological survey conducted in Japan in 2010, the incidence of new pancreatic and gastrointestinal NET was 4.78 per 100,000 people (estimated number of patients treated: 11,467). The incidences of NET other than pancreatic and gastrointestinal NET remain unknown in Japan, wher ... || Furthermore, in the CLARINET study, a median PFS was not reached at 96 weeks (24 months), in contrast to the median PFS of 36.3 weeks (based on the RECIST ver. 1.1) in the present study. This difference is attributed to differences in baseline disease characteristics of the patient and tumor characteristics. The percentages of patients with PD at baseline and prior treatment for NET were 39.3% (11/28 patients) and 78.6% (22/28 patients), respectively, in the present, and only 4.0% (4/101 patients) and 15.8% (16/101 patients), respectively, in the CLARINET study. The current Japanese stud ...

[3] = system: Japanese patients with grade (G) 1/G2 NET; experiment: Safety: adverse events (NCI-CTCAE ver. 4.0); assay type: in vivo, human; settings: for Adverse events (any): N=32
Description: For the safety evaluation, adverse events (AEs) were recorded after the first injection until the point of data cutoff (December 2015) in the extension study. AE severity was assessed according to the National Cancer Institute Common Terminology Criteria for Adverse Events (NCI-CTCAE) ver. 4.0. Gallbladder echography and blood evaluations, including serum anti-lanreotide antibody tests were performed every 12 weeks during the 48 -week period after the first injection, and every 24 weeks thereafter.
Full analysis set (FAS) and CLARINET-like FAS which was satisfied eligibility criteria of the CLARINET study were used for efficacy analysis. Safety analysis set which included patients who had received the study drug at least once was used for safety analysis. Per protocol set (PPS) was used for pharmacokinetic analysis.
Safety was evaluated using results which obtained by the data in the phase II and extension studies up to the time of data cutoff. The maximum exposure period from baseline to the time of data cutoff was 100.0 weeks (median, 87.3 weeks), and the mean exposure period (SD) was 83.1 weeks (15.2 weeks).
Adverse events were evaluated using the National Cancer Institute Common Terminology Criteria for Adverse Events (NCI-CTCAE), ver. 4.0.

CC(C)[C@@H]1NC(=O)[C@H](CCCCN)NC(=O)[C@@H](Cc2c[nH]c3ccccc23)NC(=O)[C@H](Cc2ccc(O)cc2)NC(=O)[C@@H](NC(=O)[C@H](N)Cc2ccc3ccccc3c2)CSSC[C@@H](C(=O)N[C@H](C(N)=O)[C@@H](C)O)NC1=O [lanreotide]
TGR from baseline to the last value (mean ± SD) ([1]; FAS n=28, post hoc, TGR before the first injection 25.3 ± 35.7%): 5.4 ± 10.7% | TGR (0-Last) ([1]; FAS subgroup Age (years) >65, N=12): 5.44 ± 10.34 | TGR (0-Last) ([1]; FAS subgroup Age (years) ≤65, N=16): 5.41 ± 11.34 | TGR (0-Last) ([1]; FAS subgroup Baseline TGR (%/month) <10, N=13): 3.41 ± 9.43 | TGR (0-Last) ([1]; FAS subgroup Baseline TGR (%/month) ≥10, N=15): 7.17 ± 11.76 | TGR (0-Last) ([1]; FAS subgroup Grade of tumor Grade 1, N=9): 1.65 ± 5.95 | TGR (0-Last) ([1]; FAS subgroup Grade of tumor Grade 2, N=19): 7.21 ± 12.09 | TGR (0-Last) ([1]; FAS subgroup Hepatic tumor load (%) >10 and ≤25, N=6): 8.10 ± 15.47 | TGR (0-Last) ([1]; FAS subgroup Hepatic tumor load (%) >25 and ≤50, N=3): 9.49 ± 9.98 | TGR (0-Last) ([1]; FAS subgroup Hepatic tumor load (%) ≥0 and ≤10, N=18): 4.09 ± 9.60 | TGR (0-Last) ([1]; FAS subgroup Ki67 index (%) >2 and ≤5, N=8): 5.55 ± 8.50 | TGR (0-Last) ([1]; FAS subgroup Ki67 index (%) >5 and <10, N=9): 4.63 ± 11.81 | TGR (0-Last) ([1]; FAS subgroup Ki67 index (%) ≤ 2, N=8): 1.82 ± 6.34 | TGR (0-Last) ([1]; FAS subgroup Sex Female, N=9): 2.71 ± 10.00 | TGR (0-Last) ([1]; FAS subgroup Sex Male, N=19): 6.71 ± 11.07 | TGR (0-Last) ([1]; FAS subgroup primary tumor site Hindgut, N=8): 16.35 ± 11.02 | TGR (0-Last) ([1]; FAS subgroup primary tumor site Other/ Unknown, N=5): 4.23 ± 6.12 | TGR (0-Last) ([1]; FAS subgroup primary tumor site Pancreas, N=12): 0.43 ± 7.83 | TGR (0-Last) ([1]; FAS subgroup prior treatment for NET Absent, N=6): 0.69 ± 5.09 | TGR (0-Last) ([1]; FAS subgroup prior treatment for NET Present, N=22): 6.72 ± 11.55 | TGR (0-Last) ([1]; FAS subgroup progressive disease at baseline Absent, N=17): 1.99 ± 6.50 | TGR (0-Last) ([1]; FAS subgroup progressive disease at baseline Present, N=11): 10.74 ± 13.84 | patients with decrease in TGR at the last value ([1]; population with PD at baseline, 10 of 11 patients): 90.9% | patients with serum CgA decrease of ≥50% by last examination relative to baseline (serum CgA): 88.2% | median PFS ([2]; up to 96 weeks (24 months), placebo 18.0 months): not reached | hazard ratio for PFS vs placebo ([2]; 95% CI 0.30-0.73, P < 0.001): 0.47 | Serious AEs ([3]; 6 patients of 32): 18.8% | Adverse events (any) ([3]; Grade 3): 11 (34.4) Number of patients (%) | Grade 3 or higher ADRs ([3]; Grade 3 only, 6 patients of 32): 18.8% | Adverse events (any) ([3]; Grade 4): 2 (6.3) Number of patients (%) | Adverse events (any) ([3]; Grade 5): 0 Number of patients (%) | ADR faeces pale ([3]; safety analysis set n=32): 18.8% | ADR flatulence ([3]; safety analysis set n=32): 12.5% | ADR injection site induration ([3]; safety analysis set n=32): 28.1% | Grade 4/5 ADRs and ADRs necessitating discontinuation of the study drug ([3]; safety analysis set n=32): did not occur | serious ADR pyrexia ([3]; safety analysis set n=32): 3.1% | patients with AEs related to study drug (ADRs) ([3]; safety analysis set n=32, 27 patients): 84.4% | patients with AEs ([3]; safety analysis set n=32, 31 patients): 96.9%
